# Assay results as given in the NIST ThermoML archive (doi:10.1016/j.tca.2012.10.024).
# ± gives the expanded uncertainty stated by the source.
# Tests used:
# [1] = 101.33 kPa, Liquid, Pycnometric method
# [2] = refractive index (Na D-line) (dimensionless); conditions: 101.33 kPa, Liquid, Standard Abbe refractometry
# [3] = relative permittivity at zero frequency (dimensionless); conditions: 101.33 kPa, Liquid, Parallel plate capacitor
mass density ([1]; 293.15 K) [kg/m3],mass density ([1]; 298.15 K) [kg/m3],mass density ([1]; 303.15 K) [kg/m3],refractive index ([2]; 293.15 K),refractive index ([2]; 298.15 K),refractive index ([2]; 303.15 K),relative permittivity at zero frequency ([3]; 293.15 K),relative permittivity at zero frequency ([3]; 298.15 K),relative permittivity at zero frequency ([3]; 303.15 K),SMILES
1011.06 ± 1.4,1007.07 ± 1.4,1002.49 ± 1.4,1.4326 ± 0.0009,1.4306 ± 0.0009,1.4286 ± 0.0009,7.939 ± 0.48,7.816 ± 0.47,7.692 ± 0.46,"COCCOCCOCCOCCOC [2,5,8,11,14-pentaoxapentadecane]"
,,,1.3976 ± 0.0008,1.3952 ± 0.0008,1.3929 ± 0.0008,1.968 ± 0.12,1.961 ± 0.12,1.954 ± 0.12,CCCCCCCC [octane]
,,,1.41 ± 0.0008,1.4082 ± 0.0008,1.4061 ± 0.0008,15.739 ± 0.94,15.158 ± 0.91,14.579 ± 0.88,CCCCCO [pentan-1-ol]
